Experimental data as given in US20200079786A1, “ANALOGS OF […] AS SOLUBLE EPOXIDE HYDROLASE INHIBITORS” (UNIVERSITAT DE BARCELONA, priority 2015, published 2020).
Converted amounts (≈) assume the structure as drawn. Like-named read-outs stand apart in the source and are kept apart here.

Experiments:
recombinant human sEH = target: T1, recombinant human sEH (Homo sapiens, UniProt P34913); experiment: In vitro determination of sEH inhibition activity (fluorescent assay, PHOME substrate); type: biochemical; conditions: mean ± Standard Error, min. three replicates, read-out: IC50 (nM) ± SE, sEH inhibition activity
T1 construct: purchased Cayman Chemical 10011669
T1 sequence (P34913 1-555): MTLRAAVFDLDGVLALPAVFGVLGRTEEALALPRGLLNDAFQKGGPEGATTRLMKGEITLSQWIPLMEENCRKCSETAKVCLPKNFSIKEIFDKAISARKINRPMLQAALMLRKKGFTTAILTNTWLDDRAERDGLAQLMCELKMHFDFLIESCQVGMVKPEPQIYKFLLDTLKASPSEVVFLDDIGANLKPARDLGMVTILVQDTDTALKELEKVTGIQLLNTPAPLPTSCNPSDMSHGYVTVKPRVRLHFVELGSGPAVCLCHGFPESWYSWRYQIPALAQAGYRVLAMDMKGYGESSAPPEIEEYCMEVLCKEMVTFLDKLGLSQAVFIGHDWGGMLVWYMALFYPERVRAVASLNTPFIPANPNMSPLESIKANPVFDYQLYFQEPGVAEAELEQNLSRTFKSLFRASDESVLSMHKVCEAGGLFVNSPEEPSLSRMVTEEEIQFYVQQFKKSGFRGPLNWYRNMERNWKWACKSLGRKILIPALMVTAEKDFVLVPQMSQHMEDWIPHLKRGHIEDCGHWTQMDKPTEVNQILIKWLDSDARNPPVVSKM
Description: 3-(Phenyl-oxiranyl)-acetic acid cyano-(6-methoxy-naphthalen-2-yl)-methyl ester (PHOME; from Cayman Chemical, item number 10009134; CAS 1028430-42-3); cf. N. M. Wolf et al., Anal. Biochem. 2006, vol. 355, pp. 71-80.
Solutions: • Assay buffer: Bis/Tris HCl 25 mM pH 7.0 containing 0.1 mg/mL of bovine serum albumin (BSA). • PHOME at 200 μM in DMSO. • Solution of recombinant human sEH (Cayman Chemical, item number 10011669), diluted with assay buffer. • Inhibitors dissolved in DMSO at appropriated concentrations.
In a black 96-well plate (Greiner Bio-One, item number 655900), fill the background wells with 90 μL and the positive control and inhibitor wells with 85 μL of assay buffer. Add 5 μL of DMSO to background and positive control wells, and then add 5 μL of inhibitor solution in inhibitor wells. Add 5 μL of the solution of hsEH to the positive control and inhibitor wells and mix several time. Prepare a 1/21 dilution of the solution of PHOME with assay buffer according to final volume required, and then add 105 μL of each well. Shake carefully the plate for 10 seconds and incubate for 5 minutes at room temperature. […] Results were obtained by regression analysis from at least three data points in a linear region of the curve. IC50 values are average of minimum three independent replicates.

[1] = Determination of water solubility (nephelometry); type: physicochemical; conditions: aqueous with cosolvent or surfactant or cyclodextrin, kinetic from dmso stock; 5% DMSO: 95% PBS buffer, 37° C., read after 2 and 4 h; read-out: S (solubility)
[2] = Parallel artificial membrane permeation assay for blood-brain barrier (PAMPA-BBB); type: in vitro ADME, porcine; conditions: PBS:EtOH (70:30)
Description: The in vitro permeability (Pe) of the test compounds through lipid extract of porcine brain membrane was determined. Assayed compounds were tested using a mixture of PBS:EtOH (70:30). […] From this equation and taking into account the limits established by Di et al. for BBB permeation, the ranges of permeability were established, as follows.

[3] = Determination of cytotoxicity in THLE-2 cells (ATP viability); type: cell-based; conditions: human
Description: Cytotoxic effects of assayed compounds were tested using the immortalized human liver cell line THLE-2 (ATCC CRL-2706). Cells were cultured in BEGM medium (Clonetics # CC-4175) containing all the supplements kit except additional EGF and G418. Medium was completed by adding 0.7 μg/mL phosphoethanolamine, 0.5 ng/mL epidermal growth factor, antibiotics (penicillin and streptomycin) and 10% fetal bovine serum (FBS).
Cells were plated in 96-well black microplates at 10,000 cells/well density and were incubated at 37° C. (5% CO2, 95% humidity) for 24 h to allow the cells to adhere and form a monolayer. Test compounds were solubilized in 100% DMSO at a concentration curve way and then diluted with cell culture medium containing 10% DMSO. The final concentrations of the test compounds (1% DMSO) ranged from 0-100 μM in a final volume of 200 μL. Microplates were maintained at 37° C. (5% CO2, 95% humidity) during 3 days. Following this 72 h exposure to test compounds, cell viability in each well was determined by measuring the concentration of cellular adenosine triphosphate (ATP) using the ATP1Step Kit as described by the manufacturer (Perkin-Elmer). In a typical procedure, 50 μL of cell reagent is added to all wells of each test plate followed by incubation for 10 min at room temperature on an orbital shaker. ATP concentration was determined by reading chemical luminescence using the Envision plate reader (PerkinElmer). The percentage of viable cells relative to the non-drug treated controls was determined for each well and LC50 values were calculated as concentrations projected to kill 50% of the cells following a 72 h exposure, an average of minimum two independent replicates.

CYP2C19 = CYP2C19 (Homo sapiens, UniProt P33261); experiment: Inhibition of human cytochrome P450 CYP2C19; type: in vitro ADME; conditions: human cytochrome P450 enzyme
Sequence of CYP2C19 (P33261 whole entry): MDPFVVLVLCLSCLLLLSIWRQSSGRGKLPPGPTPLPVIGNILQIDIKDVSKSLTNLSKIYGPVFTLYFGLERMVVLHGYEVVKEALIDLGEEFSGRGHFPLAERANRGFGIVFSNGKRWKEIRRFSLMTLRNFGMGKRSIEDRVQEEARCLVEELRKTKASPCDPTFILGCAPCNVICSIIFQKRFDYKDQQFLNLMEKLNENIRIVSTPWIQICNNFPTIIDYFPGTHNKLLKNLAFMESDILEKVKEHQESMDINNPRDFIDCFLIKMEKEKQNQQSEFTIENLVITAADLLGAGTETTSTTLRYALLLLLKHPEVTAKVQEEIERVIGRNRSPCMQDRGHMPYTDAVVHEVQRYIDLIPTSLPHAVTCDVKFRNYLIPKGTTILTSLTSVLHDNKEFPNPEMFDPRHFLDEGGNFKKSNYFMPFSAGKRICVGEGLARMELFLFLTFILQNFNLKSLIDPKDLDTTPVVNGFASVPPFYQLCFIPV
From the text: (§1) The epoxidation of arachidonic acid (AA) by selected cytochrome P450 epoxygenases generates epoxyeicosatrienoic acids (EETs). These EETs show anti-inflammatory, antihypertensive, analgesic, angiogenic, and antiatherosclerotic effects in rodents and humans. sEH converts EETs to their corresponding dihydroxyeicosatrienoic acids (DHETs), whereby the biological effects of EETs are diminished, eliminated, or altered. Among the P450 enzymes, it is known that CYP2C19 and CYP1A2 have the highest formation rate of EETs from AA (cf. A. A. El-Sherbeni et al. “Repurposing resveratrol and fluconazole to modulate human cytrochrome P450-mediated arachidonic acid metabolites”, Molecular Pharmaceutics 2016, vol. 13, pp. 1278-1288). For this reason, a highly desirable aspect of any new sEH inhibitor is selectivity in front of CYP2C19 and CYP1A2.

CYP1A2 = target: T2, CYP1A2 (Homo sapiens, UniProt P05177); experiment: Inhibition of human cytochrome P450 CYP1A2; type: in vitro ADME; conditions: human cytochrome P450 enzyme
T2 sequence (P05177 1-516): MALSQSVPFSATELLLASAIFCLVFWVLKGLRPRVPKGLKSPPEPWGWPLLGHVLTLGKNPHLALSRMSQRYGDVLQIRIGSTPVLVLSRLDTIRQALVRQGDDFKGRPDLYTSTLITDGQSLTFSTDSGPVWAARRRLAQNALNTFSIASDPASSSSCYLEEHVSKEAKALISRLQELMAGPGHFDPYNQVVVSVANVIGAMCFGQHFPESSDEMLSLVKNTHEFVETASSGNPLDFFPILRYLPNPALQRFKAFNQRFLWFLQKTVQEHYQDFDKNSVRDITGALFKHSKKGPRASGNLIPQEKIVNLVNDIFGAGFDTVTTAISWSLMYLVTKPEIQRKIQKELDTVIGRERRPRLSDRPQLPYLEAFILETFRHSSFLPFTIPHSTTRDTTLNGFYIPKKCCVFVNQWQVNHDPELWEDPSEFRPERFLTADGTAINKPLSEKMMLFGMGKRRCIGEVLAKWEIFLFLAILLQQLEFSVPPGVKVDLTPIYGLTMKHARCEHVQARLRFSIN
From the text: as §1

sEH in AR42j cells = target: T3, sEH in AR42j cells (Rattus norvegicus, UniProt P80299); experiment: In vitro determination of sEH inhibition activity in AR42j cells (cell-based fluorescent assay); conditions: AR-42J, read-out: % Inhn. ± SE (100 μM), sEH inhibition activity in cell culture
T3 sequence (P80299 1-554): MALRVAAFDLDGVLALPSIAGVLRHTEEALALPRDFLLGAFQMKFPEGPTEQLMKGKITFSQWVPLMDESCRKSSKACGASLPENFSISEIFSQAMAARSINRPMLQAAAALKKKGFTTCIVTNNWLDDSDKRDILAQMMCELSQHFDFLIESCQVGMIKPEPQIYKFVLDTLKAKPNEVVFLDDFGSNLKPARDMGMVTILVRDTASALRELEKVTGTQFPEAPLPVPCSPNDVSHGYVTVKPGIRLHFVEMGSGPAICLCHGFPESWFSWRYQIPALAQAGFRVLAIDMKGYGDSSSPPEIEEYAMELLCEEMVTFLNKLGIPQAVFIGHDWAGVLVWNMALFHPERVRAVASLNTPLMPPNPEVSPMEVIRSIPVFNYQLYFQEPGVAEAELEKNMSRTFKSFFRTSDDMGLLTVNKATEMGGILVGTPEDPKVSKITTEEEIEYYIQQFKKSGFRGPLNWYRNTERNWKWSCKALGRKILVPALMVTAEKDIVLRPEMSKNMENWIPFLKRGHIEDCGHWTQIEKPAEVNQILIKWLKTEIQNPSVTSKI
Description: Solutions Preparation: • Assay buffer 1×: add 10 mL of the CBA-Buffer (10×) to 90 mL of distilled water. • Lysis Buffer: add 50 μL of the CBA Digitonin Solution to 10 mL of Buffer Assay 1×. • Substrate Solution: dilute 10 μL of CBA sEH Substrate with 10 mL of Assay Buffer 1×. • Standards: preparation of 7 concentrations of CBA 6-methoxy-2-naphtalaldehyde from 0 until 2 M with Assay Buffer 1×. • sEH Positive Control: Prepare another stock A (1 μg/ml: 1 μL CBA sEH Positive Control+1 mL Assay Buffer 1×). From the already prepared stock A, prepare 250 μL of sEH (10 ng/mL): 2.5 μL sEH stock A+250 μL Assay Buffer 1×). • sEH Inhibitor AUDA: dilute 10 μL CBA sEH Inhibitor with 500 ml Assay Buffer 1×. • Inhibitors dissolved in DMSO at appropriated concentrations.
Seed cells in a 96-well plate at a density of (2×10^4)-(5×10^4) cells/well in 100 μL of culture medium with or without compounds to be tested. Incubation of the cells in a CO2 incubator at 37° C. for 48 hours. Aspirate the culture medium and add 200 μL of Assay Buffer 1× to each well. Centrifuge the plate at 800 rmp for 5 minutes. Aspirate the supernatant and add 100 μL of Lysis Buffer to each well. Incubate with gentle shaking on an orbital shaker for 30 minutes at room temperature. Centrifuge the plate at 3000 rpm for 20 minutes at 4° C. Transfer 90 μL of the supernatants to the 96-Well Solid Plate (black). Add 10 μL Assay Buffer 1× or 10 μL of the AUDA solution to appropriate wells. For positive control wells, add 100 μL of the 10 ng/mL sEH Positive Control to two wells. Add 200 μL of 6-methoxy-2-Naphthaldehyde Standards to corresponding wells of the black plate. Add 100 μL of the sEH Substrate Solution to each well, except the standards. Incubate the plate at 37° C. for 30 minutes. […] The intensity of fluorescence was used to analyze and calculate inhibition percentages, shown in the Table as average of minimum three independent replicates.

Row | Structure (SMILES) | IC50 (recombinant human sEH) [nM] | solubility [1] [µM] | CNS prediction [2] | CC50 at 72 h [3] [µM] | inhibition at 1 µM (CYP2C19) [%] | inhibition at 1 µM (CYP1A2) [%] | CC50 at 72 h ([3]; THLE-2 cells, 72 h exposure, 0-100 μM, read-out: LC50 (μM), cytotoxicity) [µM] | inhibition at 100 µM (sEH in AR42j cells) [%]
1 | O=C(Nc1ccc(F)c(F)c1F)N[C@@]12CC3C[C@H](C1)C[C@](C1CCCCC1)(C3)O2 (stereo in doubt) [Id, 1-(3-cyclohexyl-2-oxaadamantan-1-yl)-3-(2,3,4-trifluorophenyl)urea] | 17.5 ± 3.6 |  |  |  |  |  |  | 
2 | CC12CC3CC(C1)CC(NC(=O)Nc1ccc(F)c(F)c1F)(C3)O2 [Ib, 1-(3-methyl-2-oxaadamantan-1-yl)-3-(2,3,4-trifluorophenyl)urea] | 21.3 ± 5.4 | 63 (≈ 21.4 µg/mL) | CNS+ (Compounds of high BBB permeation (CNS+): Pe (10^6 cm s^−1)>5.181) | > 100 |  |  |  | 
3 | CC(=O)N1CCC(NC(=O)NC23CC4CC(CC(C4)O2)C3)CC1 [If, 1-(2-oxaadamantan-1-yl)-3-(1-acetylpiperidin-4-yl)urea] | 19.8 ± 6.2 | > 100 |  |  | ≤ 6 | ≤ 6 | > 100 | 42.1 ± 5

Further lines, with some results ahead:

Row | IC50 (recombinant human sEH) [nM] | solubility [1] [µM] | Structure (SMILES) | CNS prediction [2] | CC50 at 72 h [3] [µM] | inhibition at 1 µM (CYP2C19) [%] | inhibition at 1 µM (CYP1A2) [%] | CC50 at 72 h ([3]; THLE-2 cells, 72 h exposure, 0-100 μM, read-out: LC50 (μM), cytotoxicity) [µM] | inhibition at 100 µM (sEH in AR42j cells) [%]
4 | 8.1 ± 3.2 | 77 (≈ 27.3 µg/mL) | CCC12CC3CC(C1)CC(NC(=O)Nc1ccc(F)c(F)c1F)(C3)O2 [Ic, 1-(3-ethyl-2-oxaadamantan-1-yl)-3-(2,3,4-trifluorophenyl)urea] | CNS+ (Compounds of high BBB permeation (CNS+): Pe (10^6 cm s^−1)>5.181) | > 100 |  |  |  | 
5 | 21.3 ± 4.3 |  | O=C(Nc1ccc(F)c(F)c1F)NC12CC3CC(C1)CC(c1ccccc1)(C3)O2 [Ie, 1-(3-phenyl-2-oxaadamantan-1-yl)-3-(2,3,4-trifluorophenyl)urea] |  |  |  |  |  | 
